# Biological target: human indolethylamine-N-methyltransferase (hINMT) (Homo sapiens, UniProt O95050)
# Assay: radiometric […]SAM methyltransferase assay, pure hINMT
# Assay type: biochemical
# human indolethylamine-N-methyltransferase (hINMT), sequence (O95050 whole entry): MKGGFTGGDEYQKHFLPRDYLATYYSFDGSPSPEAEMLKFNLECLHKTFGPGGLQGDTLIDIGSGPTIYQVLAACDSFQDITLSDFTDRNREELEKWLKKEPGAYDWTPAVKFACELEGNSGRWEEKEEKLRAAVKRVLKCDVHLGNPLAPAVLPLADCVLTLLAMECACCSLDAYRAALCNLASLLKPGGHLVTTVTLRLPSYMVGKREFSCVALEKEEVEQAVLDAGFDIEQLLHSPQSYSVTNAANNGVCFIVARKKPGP
smiles,measurement,value
"CN(C)CCCNCCc1c[nH]c2ccccc12 [PDAT, N-[2-(1H-indol-3-yl)ethyl]-N′,N′-dimethylpropane-1,3-diamine]",IC50,~1000 µM

# Reference: publication PMC4025572 (Biochemistry, 2014)
